Like-named read-outs stand apart in the source and are kept apart here.
System: HCMV
Format: cell-based
Details: DE
Procedure: In example herpesvirus PRM assay methods shown herein, cell pellets were lysed in 2% SDS, 100 mM NaCl, 0.5 mM EDTA, 50 mM Tris, pH 8.2, and 50 μg of protein was reduced and alkylated with 25 mM TCEP and 50 mM CAM respectively for 20 min at 70° C. Proteins were then precipitated via methanol chloroform precipitation (Wessel & Flugg, Anal Biochem. 138(1):141-143, 1984), resuspended in 50 mM HEPES, pH 8.2 and digested overnight with trypsin (50:1 protein:enzyme w/w ratio). Digested peptides were desalted by SDB-RPS StageTip as previously described (Lum et al., Cell Syst., 7(6):[…], 2018; Greco et al., Methods Mol Biol 1410:39-63, 2016; Federspiel & Cristea, Methods Mol Biol., 1977:115-143, 2019).
Peptides (1.0 μg on column) were analyzed by LC-MS/MS using a Dionex Ultimate 3000 UHPLC coupled online to an EASYSpray ion source and a Q Exactive HF. Peptides were separated on an EASYSpray C18 column (75 μm×25 cm) heated to 50° C. using a linear gradient of 5% B to 32% B over 60 min at a flow rate of 250 nL/min and were ionized at 1.7 kv. Mobile phase A consisted of 0.1% FA in H2O and mobile phase B consisted of 0.1% FA, 2.9% H2O in ACN.
The PRM method was controlled by a peptide inclusion list with retention time windows of 6 min for selected precursor ions.
The PRM assay was developed and analyzed using the open-source software Skyline (Maclean et al., Bioinformatics 26(7):966-968, 2010). Summed area under the curve of 3-4 transitions per peptide was used for quantitation. Targeted peptides were normalized to host protein loading control peptides. Peptide values for each sample were scaled to the average of each peptide across all runs. The average of multiple peptides was used as the inferred value for the protein measurement when more than one peptide was quantified (Federspiel et al., PLoS Biol. 17(9):e3000437. Doi: 10.1371/journal.pbio.3000437). PRM quantitation data were graphed using the Python Seaborn and Matplotlib libraries.
MRC5 primary human fibroblasts (HFs) (ATCC CCL-171) were used as the model system for HSV-1 and HCMV infections and were cultured in complete growth medium (DMEM supplemented with 10% fetal bovine serum and 1% penicillin-streptomycin antibiotics) at 37° C. and 5% CO2. iSLK.219 cells harboring latent KSHV (a gift from Dr. Britt Glaunsinger, University of California, Berkeley) were grown in complete growth medium supplemented with 500 μg/ml hygromycin (ThermoFisher Scientific, 10687010) at 37° C. and 5% CO2. All cells were used for experiments within a maximum of 10 passages.
Wild type HSV-1 strain 17+ (a gift from Beate Sodeik, Hannover Medical School, Hannover, Germany) was propagated as previously described (Diner et al., 2015). Briefly, PO stocks were generated by electroporating pBAC-HSV-1 into U-2 OS cells. […] In a similar manner, wild type HCMV strain AD169 was produced from BAC electroporation into HFs and working stocks were propagated by infecting HFs at a low level. In both cases, cell-associated virus was released by sonication, combined with supernatant virus, then concentrated by ultracentrifugation (20,000 rpm, 2 hours, 4° C. with SW28 swinging bucket rotor [Beckman Coulter]) over a 10% ficoll (HSV-1) or 20% sorbitol (HCMV) cushion. Virus stock titers were determined by plaque assay for HSV-1 or tissue culture infectious dose (TCID50) for HCMV and infections were performed at a multiplicity of infection (MOI) of 3.
12 hours prior to virus infection or reactivation, cells were treated with either the small molecule drug or DMSO/PBS control at an equivalent volume. […] For infection cycles lasting longer than 24 hours, small molecule drugs were re-added to the cell culture medium every 24 hours. Upon collection, cells were rinsed with PBS, scraped into a microcentrifuge tube, pelleted by centrifugation, and rinsed again with PBS.

## Nc1ccn(C[C@@H](CO)OCP(=O)(O)O)c(=O)n1 [CDV, cidofovir]
Timepoint 72
  UL119/UL118 (P16739) protein, numerical value of heatmap FIG. 6C: 0.9178
  UL128 (P16837) protein, numerical value of heatmap FIG. 6C: 0.3157
  US8 (P09730) protein, numerical value of heatmap FIG. 6C: 1.064
  US9 (P09729) protein, numerical value of heatmap FIG. 6C: 1.073
  US12 (P09721) protein, numerical value of heatmap FIG. 6C: 1.061
  US13 (P09720) protein, numerical value of heatmap FIG. 6C: 1.062
  US14 (P09719) protein, numerical value of heatmap FIG. 6C: 0.8113
  US18 (P69334) protein, numerical value of heatmap FIG. 6C: 1.076
  US22 (P09722) protein, numerical value of heatmap FIG. 6C: 0.7585
  US23 (P09701) protein, numerical value of heatmap FIG. 6C: 0.7114
  US24 (P09700) protein, numerical value of heatmap FIG. 6C: 0.6653
  gB (P06473) protein, numerical value of heatmap FIG. 6C: 0.7243
  sp|P09710|IR01_HCMVA (P09710) protein, numerical value of heatmap FIG. 6C: 0.4528
Timepoint 96
  CVC2 (P16726) protein, numerical value of heatmap FIG. 6C: 0.8812
  DBP (P17147) protein, numerical value of heatmap FIG. 6C: 1.215
  HELI (P16736) protein, numerical value of heatmap FIG. 6C: 0.6134
  NEC1 (P16794) protein, numerical value of heatmap FIG. 6C: 0.6641
  NEC2 (P16791) protein, numerical value of heatmap FIG. 6C: 0.9731
  RIR1 (P16782) protein, numerical value of heatmap FIG. 6C: 0.8478
  TRM1 (P16724) protein, numerical value of heatmap FIG. 6C: 0.8347
  UL4 (P17146) protein, numerical value of heatmap FIG. 6C: 1.514
  UL26 (P16762) protein, numerical value of heatmap FIG. 6C: 1.007
  UL32 (P08318) protein, numerical value of heatmap FIG. 6C: 0.8551
  UL34 (P16812) protein, numerical value of heatmap FIG. 6C: 0.6849
  UL35 (P16766) protein, numerical value of heatmap FIG. 6C: 0.6647
  UL38 (P16779) protein, numerical value of heatmap FIG. 6C: 0.8749
  UL44 (P16790) protein, numerical value of heatmap FIG. 6C: 0.9654
  UL48 (P16785) protein, numerical value of heatmap FIG. 6C: 0.7541
  UL54 (P08546) protein, numerical value of heatmap FIG. 6C: 1.256
  UL71 (P16823) protein, numerical value of heatmap FIG. 6C: 1.299
  UL78 (P16751) protein, numerical value of heatmap FIG. 6C: 0.7903
  UL84 (P16727) protein, numerical value of heatmap FIG. 6C: 0.7779
  UL95 (P16801) protein, numerical value of heatmap FIG. 6C: 0.5596
  UL96 (P16787) protein, numerical value of heatmap FIG. 6C: 0.7142
  UL97 (P16788) protein, numerical value of heatmap FIG. 6C: 0.8338
  UL98 (P16789) protein, numerical value of heatmap FIG. 6C: 1.012
  UL102 (P16827) protein, numerical value of heatmap FIG. 6C: 0.9332
  UL104 (P16735) protein, numerical value of heatmap FIG. 6C: 0.5729
  UL112/UL113 (P17151) protein, numerical value of heatmap FIG. 6C: 0.7439
  UL114 (P16769) protein, numerical value of heatmap FIG. 6C: 0.9743
  UL119/UL118 (P16739) protein, numerical value of heatmap FIG. 6C: 0.7206
  UL128 (P16837) protein, numerical value of heatmap FIG. 6C: 0.8111
  US8 (P09730) protein, numerical value of heatmap FIG. 6C: 0.7796
  US9 (P09729) protein, numerical value of heatmap FIG. 6C: 0.9079
  US12 (P09721) protein, numerical value of heatmap FIG. 6C: 0.6688
  US13 (P09720) protein, numerical value of heatmap FIG. 6C: 0.8741
  US14 (P09719) protein, numerical value of heatmap FIG. 6C: 0.6845
  US18 (P69334) protein, numerical value of heatmap FIG. 6C: 1.116
  US22 (P09722) protein, numerical value of heatmap FIG. 6C: 1.105
  US23 (P09701) protein, numerical value of heatmap FIG. 6C: 0.7852
  US24 (P09700) protein, numerical value of heatmap FIG. 6C: 0.7832

— patent US20240027453A1, “METHOD FOR DETECTION AND QUANTITATIVE MONITORING OF INFECTIONS WITH HERPESVIRUSES” (The Trustees of Princeton University, priority 2020, published 2024)
